Measured values reported in patent US10752609B2, “GSK-3 inhibitors” (priority 2016, dated 2020).
pIC50: −log10 of the molar value. Read-outs that look alike come from different tables or passages of the source.

Legend:
[1] = tested on: pTau; test: pTau assay (no method described); format: cell-based
[2] = biological target: GSK3α (Homo sapiens, UniProt P49840); test: GSK3α kinase assay (Caliper LabChip3000 mobility shift, fluoresceinated peptide substrate)
[3] = biological target: GSK3β (Homo sapiens, UniProt P49841); test: GSK3β kinase assay (Caliper LabChip3000 mobility shift, fluoresceinated peptide substrate); format: biochemical; settings: for IC50: 250 pM enzyme, 20 uM ATP, 1.5 uM peptide, 20 hours room temperature, first value of cell GSK3β/GSK3α, read-out: GSK3β (nM), IC50
Sequence of GSK3β (P49841 whole entry, species assumed): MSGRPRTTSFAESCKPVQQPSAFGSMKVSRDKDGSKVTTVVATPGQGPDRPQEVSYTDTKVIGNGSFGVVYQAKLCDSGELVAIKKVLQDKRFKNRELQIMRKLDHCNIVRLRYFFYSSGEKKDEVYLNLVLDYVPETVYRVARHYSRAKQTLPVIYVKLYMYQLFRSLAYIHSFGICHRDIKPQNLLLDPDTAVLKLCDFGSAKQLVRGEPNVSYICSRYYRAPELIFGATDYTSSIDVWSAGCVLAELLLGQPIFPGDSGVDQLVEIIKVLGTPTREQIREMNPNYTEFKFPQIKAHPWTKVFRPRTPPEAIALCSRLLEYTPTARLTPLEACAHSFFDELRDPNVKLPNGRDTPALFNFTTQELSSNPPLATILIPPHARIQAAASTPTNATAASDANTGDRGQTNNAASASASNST

Sequence of GSK3α (P49840 whole entry, species assumed): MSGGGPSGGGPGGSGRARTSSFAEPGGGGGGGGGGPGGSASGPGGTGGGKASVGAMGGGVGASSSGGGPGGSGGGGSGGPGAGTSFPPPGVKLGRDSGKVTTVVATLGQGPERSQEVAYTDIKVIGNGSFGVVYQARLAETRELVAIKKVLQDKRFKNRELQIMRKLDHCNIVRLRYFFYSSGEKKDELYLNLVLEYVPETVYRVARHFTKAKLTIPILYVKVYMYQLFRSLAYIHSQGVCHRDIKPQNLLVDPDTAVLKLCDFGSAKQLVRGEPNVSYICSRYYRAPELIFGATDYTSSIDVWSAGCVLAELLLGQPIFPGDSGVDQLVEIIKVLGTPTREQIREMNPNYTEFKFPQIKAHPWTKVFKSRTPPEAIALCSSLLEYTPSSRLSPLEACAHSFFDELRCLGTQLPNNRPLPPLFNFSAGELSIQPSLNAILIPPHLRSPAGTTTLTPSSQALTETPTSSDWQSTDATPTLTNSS

With O=C(Nc1cncc(-c2ccccc2F)c1)c1ccnc(Nc2ccc(F)nc2)n1 [Example 104, N-(5-(2-Fluorophenyl)pyridin-3-yl)-2-((6-fluoropyridin-3-yl)amino)pyrimidine-4-carboxamide] as the compound, how does the pIC50 [1] read?
The pIC50 was 6.18.

What about the pIC50 [2] of the same compound?
The pIC50 was 8.68.

And the IC50 [3]?
Its IC50 is 4.8 nM.

How did the pIC50 [1] turn out when O=C(Nc1cncc(-c2ccccc2F)c1)c1ccnc(Nc2ccc(OC(F)F)nc2)n1 [Example 105, 2-((6-(Difluoromethoxy)pyridin-3-yl)amino)-N-(5-(2-fluorophenyl)pyridin-3-yl)pyrimidine-4-carboxamide] was run?
The pIC50 was 5.68.

What about the pIC50 [2] of the same compound?
The pIC50 was 7.82.

What about the IC50 [3] of the same compound?
The IC50 was 31 nM.

O=C(Nc1cnccc1OCC(F)(F)F)c1ccnc(Nc2ccc3cnccc3c2)n1 [Example 106, 2-(Isoquinolin-6-ylamino)-N-(4-(2,2,2-trifluoroethoxy)pyridin-3-yl)pyrimidine-4-carboxamide] was tested. Which pIC50 [1] did it give?
The pIC50 was 8.72.

And the pIC50 [2]?
Its pIC50 is 10.05.

And the IC50 [3]?
The IC50 was 0.11 nM.

O=C(Nc1cnccc1OCC(F)(F)F)c1ccnc(Nc2ccc3cccnc3c2)n1 [Example 107, 2-(Quinolin-7-ylamino)-N-(4-(2,2,2-trifluoroethoxy)pyridin-3-yl)pyrimidine-4-carboxamide] was tested. Which pIC50 [1] did it give?
The pIC50 was 8.03.

And the pIC50 [2]?
The pIC50 was 9.62.

And the IC50 [3]?
Its IC50 is 0.17 nM.

Which results are given for O=C(Nc1cnc(F)cc1OCC(F)(F)F)c1ccnc(Nc2ccc(C(F)(F)F)cc2)n1 [Example 109, N-(6-Fluoro-4-(2,2,2-trifluoroethoxy)pyridin-3-yl)-2-((4-(trifluoromethyl)phenyl)amino) pyrimidine-4-carboxamide]?
pIC50 [1]: 7.36; pIC50 [2]: 9.37; IC50 [3]: 0.88 nM

Which results are given for O=C(Nc1cnc(F)cc1OCC(F)(F)F)c1ccnc(Nc2ccc(Cl)cc2)n1 [Example 110, 2-((4-Chlorophenyl)amino)-N-(6-fluoro-4-(2,2,2-trifluoroethoxy)pyridin-3-yl)pyrimidine-4-carboxamide]?
pIC50 [1]: 7.19; pIC50 [2]: 9.17; IC50 [3]: 1.1 nM

O=C(Nc1cnccc1OCC(F)(F)F)c1ccnc(Nc2ccc(C(F)(F)F)cn2)n1 [Example 111, N-(4-(2,2,2-Trifluoroethoxy)pyridin-3-yl)-2-((5-(trifluoromethyl)pyridin-2-yl)amino)pyrimidine-4-carboxamide] was tested. Which pIC50 [1] did it give?
The pIC50 was 6.66.

And the pIC50 [2]?
The pIC50 was 8.66.

And the IC50 [3]?
Its IC50 is 2.9 nM.

O=C(Nc1cnccc1OCC(F)(F)F)c1ccnc(Nc2ccc(F)cc2F)n1 [Example 113, 2-((2,4-Difluorophenyl)amino)-N-(4-(2,2,2-trifluoroethoxy)pyridin-3-yl)pyrimidine-4-carboxamide] was tested. Which pIC50 [1] did it give?
The pIC50 was 6.52.

And the pIC50 [2]?
The pIC50 was 8.40.

And the IC50 [3]?
Its IC50 is 5.3 nM.

Which results are given for O=C(Nc1cnccc1OCC(F)(F)F)c1ccnc(Nc2ccccn2)n1 [Example 114, 2-(Pyridin-2-ylamino)-N-(4-(2,2,2-trifluoroethoxy)pyridin-3-yl)pyrimidine-4-carboxamide]?
pIC50 [1]: 6.68; pIC50 [2]: 7.85; pIC50 [3]: 7.70

O=C(Nc1cnccc1OCC(F)(F)F)c1ccnc(NC2CCCC2)n1 [Example 116, 2-(Cyclopentylamino)-N-(4-(2,2,2-trifluoroethoxy)pyridin-3-yl)pyrimidine-4-carboxamide] was tested. Which pIC50 [1] did it give?
Its pIC50 is 7.92.

What about the pIC50 [2] of the same compound?
Its pIC50 is 9.80.

And the IC50 [3]?
The IC50 was 0.19 nM.

With O=C(Nc1cnccc1OCC(F)(F)F)c1ccnc(NC2CCCCC2)n1 [Example 117, 2-(Cyclohexylamino)-N-(4-(2,2,2-trifluoroethoxy)pyridin-3-yl)pyrimidine-4-carboxamide] as the compound, how does the pIC50 [1] read?
The pIC50 was 7.55.

And the pIC50 [2]?
The pIC50 was 9.68.

What about the IC50 [3] of the same compound?
Its IC50 is 0.25 nM.

Which results are given for O=C(Nc1cnccc1OCC(F)(F)F)c1ccnc(NCC2CC2)n1 [Example 118, 2-((Cyclopropylmethyl)amino)-N-(4-(2,2,2-trifluoroethoxy)pyridin-3-yl)pyrimidine-4-carboxamide]?
pIC50 [1]: 7.85; pIC50 [2]: 9.55; IC50 [3]: 0.3 nM

Which results are given for CC(C)Nc1nccc(C(=O)Nc2cnccc2OCC(F)(F)F)n1 [Example 120, 2-(Isopropylamino)-N-(4-(2,2,2-trifluoroethoxy)pyridin-3-yl)pyrimidine-4-carboxamide]?
pIC50 [1]: 7.59; pIC50 [2]: 8.85; IC50 [3]: 0.44 nM

What does the source list for CC(C)(C)C1CCC(Nc2nccc(C(=O)Nc3cnccc3OCC(F)(F)F)n2)CC1 (stereo not drawn) [Example 121, 2-((4-(tert-Butyl)cyclohexyl)amino)-N-(4-(2,2,2-trifluoroethoxy)pyridin-3-yl)pyrimidine-4-carboxamide]?
pIC50 [1]: 7.21; pIC50 [2]: 9.46; IC50 [3]: 0.46 nM

Which results are given for CC(C)(C)[C@H]1CC[C@@H](Nc2nccc(C(=O)Nc3cnccc3OCC(F)(F)F)n2)CC1 [Example 122]?
pIC50 [1]: 5.38; pIC50 [2]: 7.92; IC50 [3]: 8.4 nM

With CCNc1nccc(C(=O)Nc2cnccc2OCC(F)(F)F)n1 [Example 123, 2-(Ethylamino)-N-(4-(2,2,2-trifluoroethoxy)pyridin-3-yl)pyrimidine-4-carboxamide] as the compound, how does the pIC50 [1] read?
Its pIC50 is 7.26.

And the pIC50 [2]?
The pIC50 was 8.35.

What about the IC50 [3] of the same compound?
Its IC50 is 0.92 nM.

Which results are given for O=C(Nc1cnccc1OCC(F)(F)F)c1ccnc(NC2CCOCC2)n1 [Example 124, 2-((Tetrahydro-2H-pyran-4-yl)amino)-N-(4-(2,2,2-trifluoroethoxy)pyridin-3-yl)pyrimidine-4-carboxamide]?
pIC50 [1]: 7.17; pIC50 [2]: 9.02; pIC50 [3]: 9.00

How did the pIC50 [1] turn out when CC(C)C(C)Nc1nccc(C(=O)Nc2cnccc2OCC(F)(F)F)n1 (stereo not drawn) [Example 125, 2-((3-Methylbutan-2-yl)amino)-N-(4-(2,2,2-trifluoroethoxy)pyridin-3-yl)pyrimidine-4-carboxamide] was run?
Its pIC50 is 7.26.

And the pIC50 [2]?
Its pIC50 is 9.08.

What about the IC50 [3] of the same compound?
The IC50 was 1.1 nM.

With CC(Nc1nccc(C(=O)Nc2cnccc2OCC(F)(F)F)n1)C(C)(C)C (stereo not drawn) [Example 126, 2-((3,3-Dimethylbutan-2-yl)amino)-N-(4-(2,2,2-trifluoroethoxy)pyridin-3-yl)pyrimidine-4-carboxamide] as the compound, how does the pIC50 [1] read?
The pIC50 was 6.96.

What about the pIC50 [2] of the same compound?
Its pIC50 is 9.39.

What about the IC50 [3] of the same compound?
Its IC50 is 1.1 nM.

Which results are given for O=C(Nc1cnccc1OCC(F)(F)F)c1ccnc(NCc2ccccc2)n1 [Example 128, 2-(Benzylamino)-N-(4-(2,2,2-trifluoroethoxy)pyridin-3-yl)pyrimidine-4-carboxamide]?
pIC50 [1]: 6.68; pIC50 [2]: 8.89; IC50 [3]: 1.2 nM

What does the source list for O=C(Nc1cnccc1OCC(F)(F)F)c1ccnc(NCc2ccccc2F)n1 [Example 129, 2-((2-Fluorobenzyl)amino)-N-(4-(2,2,2-trifluoroethoxy)pyridin-3-yl)pyrimidine-4-carboxamide]?
pIC50 [1]: 6.74; pIC50 [2]: 8.74; IC50 [3]: 1.5 nM

With O=C(Nc1cnccc1OCC(F)(F)F)c1ccnc(NC2CC2)n1 [Example 130, 2-(Cyclopropylamino)-N-(4-(2,2,2-trifluoroethoxy)pyridin-3-yl)pyrimidine-4-carboxamide] as the compound, how does the pIC50 [1] read?
Its pIC50 is 7.34.

What about the pIC50 [2] of the same compound?
The pIC50 was 8.82.

And the IC50 [3]?
Its IC50 is 1.6 nM.

Which results are given for O=C(Nc1cnccc1OCC(F)(F)F)c1ccnc(NCc2ccc(F)cc2)n1 [Example 131, 2-((4-Fluorobenzyl)amino)-N-(4-(2,2,2-trifluoroethoxy)pyridin-3-yl)pyrimidine-4-carboxamide]?
pIC50 [1]: 6.80; pIC50 [2]: 8.66; IC50 [3]: 1.8 nM

O=C(Nc1cnccc1OCC(F)(F)F)c1ccnc(NCc2ccc3c(c2)OCO3)n1 [Example 132, 2-((Benzo[d][1,3]dioxol-5-ylmethyl)amino)-N-(4-(2,2,2-trifluoroethoxy)pyridin-3-yl)pyrimidine-4-carboxamide] was tested. Which pIC50 [1] did it give?
The pIC50 was 6.66.

And the pIC50 [2]?
Its pIC50 is 8.66.

And the pIC50 [3]?
Its pIC50 is 8.72.

How did the pIC50 [1] turn out when CC1CC(Nc2nccc(C(=O)Nc3cnccc3OCC(F)(F)F)n2)CC(C)O1 (stereo not drawn) [Example 133, 2-((2,6-Dimethyltetrahydro-2H-pyran-4-yl)amino)-N-(4-(2,2,2-trifluoroethoxy)pyridin-3-yl)pyrimidine-4-carboxamide] was run?
The pIC50 was 6.42.

And the pIC50 [2]?
The pIC50 was 7.42.

And the IC50 [3]?
Its IC50 is 1.9 nM.

O=C(Nc1cnccc1OCC(F)(F)F)c1ccnc(NCc2ccc(C(F)(F)F)cc2)n1 [Example 134, N-(4-(2,2,2-Trifluoroethoxy)pyridin-3-yl)-2-((4-(trifluoromethyl)benzyl)amino)pyrimidine-4-carboxamide] was tested. Which pIC50 [1] did it give?
The pIC50 was 6.51.

And the pIC50 [2]?
Its pIC50 is 8.27.

And the IC50 [3]?
Its IC50 is 2.8 nM.

With CNc1nccc(C(=O)Nc2cnccc2OCC(F)(F)F)n1 [Example 135, 2-(Methylamino)-N-(4-(2,2,2-trifluoroethoxy)pyridin-3-yl)pyrimidine-4-carboxamide] as the compound, how does the pIC50 [1] read?
The pIC50 was 6.40.

What about the pIC50 [2] of the same compound?
The pIC50 was 7.85.

And the IC50 [3]?
The IC50 was 3.6 nM.

With O=C(Nc1cnccc1OCC(F)(F)F)c1ccnc(NCc2ccccc2C(F)(F)F)n1 [Example 137, N-(4-(2,2,2-Trifluoroethoxy)pyridin-3-yl)-2-((2-(trifluoromethyl)benzyl)amino)pyrimidine-4-carboxamide] as the compound, how does the pIC50 [1] read?
Its pIC50 is 6.46.

What about the pIC50 [2] of the same compound?
Its pIC50 is 8.64.

What about the IC50 [3] of the same compound?
The IC50 was 4.1 nM.

With CC(Nc1nccc(C(=O)Nc2cnccc2OCC(F)(F)F)n1)c1ccccc1 (stereo not drawn) [Example 138, 2-((1-Phenylethyl)amino)-N-(4-(2,2,2-trifluoroethoxy)pyridin-3-yl)pyrimidine-4-carboxamide] as the compound, how does the pIC50 [1] read?
Its pIC50 is 6.37.

What about the pIC50 [2] of the same compound?
Its pIC50 is 8.49.

And the IC50 [3]?
Its IC50 is 6.1 nM.

O=C(Nc1cnccc1OCC(F)(F)F)c1ccnc(NCc2cccc(C(F)(F)F)c2)n1 [Example 139, N-(4-(2,2,2-Trifluoroethoxy)pyridin-3-yl)-2-((3-(trifluoromethyl)benzyl)amino)pyrimidine-4-carboxamide] was tested. Which pIC50 [1] did it give?
The pIC50 was 6.24.

And the pIC50 [2]?
The pIC50 was 8.27.

What about the IC50 [3] of the same compound?
Its IC50 is 6.3 nM.

With O=C(Nc1cnccc1OCC(F)(F)F)c1ccnc(NCc2cccc(F)c2)n1 [Example 140, 2-((3-Fluorobenzyl)amino)-N-(4-(2,2,2-trifluoroethoxy)pyridin-3-yl)pyrimidine-4-carboxamide] as the compound, how does the pIC50 [1] read?
Its pIC50 is 6.55.

And the pIC50 [2]?
The pIC50 was 8.80.

What about the IC50 [3] of the same compound?
Its IC50 is 1.3 nM.

With O=C(Nc1cnccc1OCC(F)(F)F)c1ccnc(NCC(F)(F)F)n1 [Example 141, N-(4-(2,2,2-Trifluoroethoxy)pyridin-3-yl)-2-((2,2,2-trifluoroethyl)amino)pyrimidine-4-carboxamide] as the compound, how does the pIC50 [1] read?
The pIC50 was 6.52.

What about the pIC50 [2] of the same compound?
Its pIC50 is 8.10.

And the IC50 [3]?
The IC50 was 7.8 nM.
